# According to publication PMC7504435, “Combined Protein- and Ligand-Observed NMR Workflow to Screen Fragment Cocktails against Multiple Proteins: A Case Study Using Bromodomains” (Molecules, 2020):
# Key:
# [1] = molecular target: T1, PfGCN5 bromodomain (Plasmodium falciparum, UniProt Q8IB67); assay: 1H CPMG NMR deconvolution of hit mixtures, PfGCN5; assay type: binding; conditions: 10 µM protein, 100 µM ligand
# Experimental: (§1) The second step is a ^1H CPMG NMR deconvolution of the hit mixtures using the non-fluorine-labeled bromodomains. ^1H CPMG NMR employs a T2 filter to take advantage of the difference in transverse relaxation time between protein and small molecules to filter out the bound-state ligand(s). Unlike the PrOF NMR assay, a single protein is assayed in each experiment. A binding event is characterized by a decrease in ligand resonance intensity from the ligand alone spectrum to the ligand + protein spectrum. A hit is defined as a decrease in resonance intensity ≥ 20%. The ^1H CPMG NMR assay can be tuned by changing the protein or ligand concentration, filter length (Figure 1), or hit criteria depending on how stringent the desired hit rate is. The number of ^1H CPMG NMR deconvolution experiments is directly informed from the first step. If a mixture from the first step was only a hit for one protein, a single ^1H CPMG NMR deconvolution experiment is needed. If a mixture from the first step was a hit for both proteins, two separate ^1H CPMG NMR deconvolutions experiments are needed to determine the fragments that bind to each protein.
# (§2) ^1H CPMG NMR. ^1H CPMG NMR screen data were acquired on Bruker Avance III HD 500 with the 5 mm Prodigy TCI cryoprobe inverse cryoprobe (^1H 2500:1 S/N). Competition ^1H CPMG NMR data were acquired on Bruker 700 MHz Avance with a CryoProbe 5 mm TXI (^1H S:N with H2O suppression (2mM sucrose) - 900:1) and excitation sculpting water suppression. Proteins were present at 10 µM in 50 mM phosphate, 100 mM NaCl, pH 7.4 in 100% D2O. In separate NMR tubes, a ^1H CPMG NMR pulse was applied to a 1) mixture of ligands (individual ligands present at 100 µM for the screen and 50 µM for competition experiments) and 2) ligands + protein. […] For the competition experiments, τ was increased to 4.0 ms.
# [2] = molecular target: BPTF bromodomain (Homo sapiens, UniProt Q12830); assay: 1H CPMG NMR deconvolution of hit mixtures, BPTF; assay type: binding; design: deconvolution of the hit mixtures using the non-fluorine-labeled bromodomains; made in house; host or cells: E. coli BL21(DE3); conditions: 10 µM protein, 100 µM ligand
# Experimental: as §1, §2
# [3] = molecular target: BRD4 D1; conditions: previous screen; NC = noncompetitive with JQ1 in 1H CPMG competition; cited from earlier work
# [4] = molecular target: T1, PfGCN5 bromodomain; assay: biochemical; assay type: binding
# Experimental: The screening workflow consists of two dependent steps: 1) a PrOF NMR screen of the 5FW-labeled proteins and a cocktail of 4–5 fragments in a single NMR tube; 2) a ^1H CPMG NMR binding assay to deconvolute the hit mixtures for each protein (Figure 1). In the first step, a dual-protein PrOF NMR spectrum was obtained in which 5FW-PfGCN5, 5FW-BPTF (~ 50 µM each) and mixtures of fragments (400 µM individual fragment) were present in the same NMR tube. […] Chemical shift perturbations indicating a ligand binding event were based on a prior cutoff of Δδ ≥ 0.030 ppm as the definition for a hit mixture. This cutoff was based on a statistical analysis of chemical shift perturbations from a prior BRD4 D1 fragment screen and are described further in the experimental section and in Table S2.
# PrOF NMR. PrOF NMR spectra were obtained on a Bruker Avance III HD 500 with the 5 mm Prodigy TCI inverse cryoprobe (^19F S:N 2000:1). […] The DMSO concentration for all experiments was kept constant at 1%. […] For the PrOF NMR screen, 5FW-BPTF and 5FW-PfGCN5 (35–40 µM in 50 mM phosphate, 100 mM NaCl, pH 7.4) were tested with mixtures of 4–5 fragments, where each individual fragment was 400 µM. […] A 10 Hz line broadening was applied. Titrations were fit to Equation (2), where p is the protein concentration and L is the ligand concentration. (2) Δδ=Δδmax × (Kd+P+L ) − (((Kd + P + L )^2) − 4PL)/2P
# A PrOF NMR binding event is characterized as a change in chemical shift (Δδ) from the protein-only spectrum to the protein + fragment mixture spectrum. We used a prior cutoff of Δδ ≥ 0.030 ppm as the definition of a hit mixture, based on a statistical analysis of chemical shift perturbations from a prior BRD4 D1 fragment screen.
# T1 sequence (Q8IB67 entry or part of it): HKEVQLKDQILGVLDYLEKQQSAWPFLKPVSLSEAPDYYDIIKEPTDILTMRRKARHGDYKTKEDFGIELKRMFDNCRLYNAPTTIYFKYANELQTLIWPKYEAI
Structure (SMILES),PfGCN5 CPMG % decrease [1],BPTF CPMG % decrease [2],other results
Cc1ccc(C)c(S(=O)(=O)N2CCCC2C(=O)O)c1 (centres unmarked) [Fragment F2189-0042],32%,35%,
COCC(=O)NC(C)Cc1ccc2c(c1)CCO2 (centres unmarked) [Fragment F6356-0896],25%,,
CCOC(=O)c1c(NC(C)=O)sc(C)c1C [Fragment F0777-0038],100%,100%,Kd [3]: 820 µM
CS(=O)(=O)NCC(c1ccoc1)N1CCSCC1 (centres unmarked) [Fragment F6353-5787],40%,,
Cc1nnc(C2CCN(C(=O)c3ccsc3)CC2)s1 [Fragment F5496-0578],83%,55%,
O=C(NCCC(O)C1CC1)Nc1ccccc1Cl (centres unmarked) [Fragment F6190-0472],,36%,
CCC(C)Sc1nnc(-c2cn(C)nc2OC)n1CC (centres unmarked) [Fragment F5003-0141],36%,52%,
C=CCNC1CCN(C)C1=O (centres unmarked) [Fragment F1905-0298],,46%,
O=C1NCCN1C(=O)NCC(c1ccsc1)N1CCC1 (centres unmarked) [Fragment F6353-7315],,23%,
CSCCC(C)(O)CNC(=O)NC1CCOCC1 (centres unmarked) [Fragment F6089-9820],,23%,
CC(C)Nc1nc2c(c(=O)[nH]c(=O)n2C)n1CC(O)CO (centres unmarked) [Fragment F2477-0016],,34%,
CC(C)C1NC(=O)CNC1=O (centres unmarked) [Fragment F2147-0955],50%,,
Cc1csc(NC(=O)C2CCNCC2)n1.Cl [Fragment F2158-1471],,40%,
CC(=O)NCC1COCCN1.CC(=O)NCC1COCCN1.Cl.Cl.Cl (centres unmarked) [Fragment F2147-1723],,23%,
CC12CCC3(C)OCC(CO)(CO1)N23 (centres unmarked) [Fragment F1983-0015],50%,,
c1cc(OCC2CO2)ccc1OCC1CO1 (centres unmarked) [Fragment F0777-0005],,54%,
COc1ccccc1C(CNC(=O)C1CC1)OC (centres unmarked) [Fragment F6451-0004],26%,,
Cc1nnc(CN)o1.Cl [Fragment F2135-1033],,23%,
CC(C)CC(=O)NCc1nccc(N(C)C)n1 [Fragment F6438-1301],50%,,
OCC1CCCN1c1cccc(C(F)(F)F)n1 (centres unmarked) [Fragment F6541-4533],,48%,

Structure (SMILES),PfGCN5 CPMG % decrease [1],BPTF CPMG % decrease [2],other results
COC(C)(CNS(C)(=O)=O)c1cccc(Cl)c1 (centres unmarked) [Fragment F6452-1288],57%,32%,
CCCSc1nnc2[nH]c(=O)c(C)c(C)n12 [Fragment F2513-0609],,46%,
CC(C)(C)C(O)CCNC(=O)COc1ccc(F)cc1 (centres unmarked) [Fragment F6190-0594],,48%,
COCCCn1c(C(=O)O)cc2c(=O)n(C)c(=O)n(C)c21 [Fragment F9995-1074],41%,,
C1CC2NCCOC2C1.Cl (centres unmarked) [Fragment F1905-0651],,75%,
COC(CNC(=O)C1CN(C(=O)c2cc(C)on2)C1)OC [Fragment F6125-0675],,32%,
CCOC(=O)c1sc(NC(=O)C2CCOC2)cc1C (centres unmarked) [Fragment F0882-2747],63%,54%,Kd [3]: 660 µM
CCCCC(=O)Nc1sc(C)c(C)c1C(N)=O [Fragment F2590-0203],,53%,
CCNc1cc(NCCNC(=O)CC(C)C)nc(C)n1 [Fragment F5626-0058],47%,50%,
O=C1CSCCN1 [Fragment F0848-0336],,33%,
CC(C)(C)NC(=O)c1cnc2n(c1=O)CCS2 [Fragment F0550-0006],,63%,
O=C1CCCC2CN(Cc3ccccc3)CC12 (centres unmarked) [Fragment F1905-6609],50%,,
Cc1cc(-c2nnc(NC(=O)C3CC3)o2)nn1C [Fragment F5036-0073],,55%,Kd [3]: 1200 µM
Cc1nc(NCCNC(=O)C(C)C)cc(N2CCCC2)n1 [Fragment F5626-0027],75%,77%,
CC(C)(C)OC(=O)N1CCC2CNCC21 (centres unmarked) [Fragment F1905-6593],21%,,
Cc1ccc(S(=O)(=O)O)cc1.N#CC1CNCCO1 [Fragment F8880-7458],24%,,
Cc1onc(N)c1S(=O)(=O)N1CCC(C)CC1 [Fragment F2158-1788],40%,,
CC(C(=O)NCc1cnn2c1CCCC2)n1cccn1 (centres unmarked) [Fragment F6513-5793],49%,72%,
CC(C)(C)OC(=O)N1CC(Oc2ncccn2)C1 [Fragment F2158-1792],68%,54%,
COc1ccc(C2CCCCN(S(C)(=O)=O)C2)cc1 (centres unmarked) [Fragment F6464-1254],33%,69%,

Structure (SMILES),PfGCN5 CPMG % decrease [1],BPTF CPMG % decrease [2],other results
CC(C)CS(=O)(=O)C1CN(S(=O)(=O)C(C)C)C1 [Fragment F6442-1971],22%,,
CCCCS(=O)(=O)N1CC(S(=O)(=O)CC(C)C)C1 [Fragment F6442-1973],26%,,
O=C(C1CC1)N1CCCC(Cc2nc(C3CC3)no2)C1 (centres unmarked) [Fragment F6497-0456],100%,100%,
Cc1cc(C(=O)N2CC(N3C(=O)CSC3=O)C2)n(C)n1 [Fragment F6473-4843],25%,,
CCCCSc1nnc(-c2cn(C)nc2OC)n1CC [Fragment F5003-0140],36%,52%,
O=C(C1CC=CCC1)N1CCC(c2ccc3c(c2)OCO3)C1 (centres unmarked) [Fragment F6518-4331],58%,,
CC(C)(C)OC(=O)N1CCCC(C(=O)O)C1 (centres unmarked) [Fragment F2158-1186],,29%,
CCCCNc1nc2c([nH]1)c(=O)n(C)c(=O)n2C [Fragment F3176-0122],77%,80%,Kd [3]: 2500 µM
Cc1cc(C)n(CC2CCNCC2)n1.Cl.Cl [Fragment F2145-0759],,29%,
Cc1nc(N2CCCC2)nc(C)c1NS(C)(=O)=O [Fragment F6438-0300],42%,,
Cc1nnc(SCC(=O)N2CCCCCC2)n(N)c1=O [Fragment F1847-0012],,36%,
"CCOC(=O)Nc1cc(-c2ccc(C)c(NS(C)(=O)=O)c2)nn2c(C)nnc12 [bromosporine, reference compound]",,,"PrOF NMR titration with 5FW-PfGCN5, result in words [4]: slow exchange kinetics"
CCOCCCNc1ncnc2c1cnn2C [Fragment F1852-0063],,38%,
CCC(=O)NCc1nc(C)cc(N2CCOCC2)n1 [Fragment F6438-0864],67%,,
CCCC(=O)Nc1cc2c3c(c1)CC(=O)N3CCC2 [Fragment F2666-0003],100%,54%,Kd [3]: 840 µM
CC(C)C(=O)N1CCN(c2cnnc(N(C)C)c2)CC1 [Fragment F6438-1468],100%,62%,
Cc1c(C(=O)O)n[nH]c1C1CC1 [Fragment F2185-0055],29%,31%,
CC(C)(C)C(=O)N1CCSC(c2ccccc2)CC1 (centres unmarked) [Fragment F6481-0067],53%,,
